The source of these data is publication PMC13052201, “Positional scanning and computational modeling reveal determinants of legumain transpeptidase activity” (Protein Science : A Publication of the Protein Society, 2026).

Where a SMILES comes first, the peptide text is derived from it. The star is where a group is joined. AMC = Cc1cc(=O)oc2cc(N*)ccc12; Cbz = O=C(OCc1ccccc1)*

The target of assay [1] is T1, human legumain (hLEG) (Homo sapiens, UniProt Q99538).
T1 construct: inferred from the Ni-NTA purification of the proenzyme; made in house; host or cells: LEXSY P10 cells (Leishmania tarentolae expression system), secreted into the supernatant
T1 sequence (Q99538 18-323 limits assumed): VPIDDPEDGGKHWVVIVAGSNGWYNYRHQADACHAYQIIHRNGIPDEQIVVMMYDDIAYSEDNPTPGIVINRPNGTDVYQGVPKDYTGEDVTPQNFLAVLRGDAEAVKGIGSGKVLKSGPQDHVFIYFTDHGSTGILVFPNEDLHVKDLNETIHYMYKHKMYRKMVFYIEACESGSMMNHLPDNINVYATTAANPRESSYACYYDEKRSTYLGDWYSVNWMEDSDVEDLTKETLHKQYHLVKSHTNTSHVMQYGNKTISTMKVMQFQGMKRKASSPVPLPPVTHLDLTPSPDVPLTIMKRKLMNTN
The experiment in a line: Enzyme kinetic assay with fluorogenic AMC substrates, hLEG. The format is biochemical. The settings on record: 2 nM hLEG; for Km: 50 mM citric acid pH 5.5, 100 mM NaCl, 0.05% Tween-20, 37°C, ex 380/em 460 nm, Michaelis-Menten (Z-AAN-AMC) or substrate inhibition model (Z-VAN-AMC). On the procedure:
K m values for the substrates Z‐AAN‐AMC (benzyloxycarbonyl‐Ala‐Ala‐Asn‐7‐amino‐4‐methylcoumarin) and Z‐VAN‐AMC (benzyloxycarbonyl‐Val‐Ala‐Asn‐7‐amino‐4‐methylcoumarin) toward hLEG were determined in 50 mM citric acid buffer (pH 5.5) containing 100 mM NaCl and 0.05% Tween‐20. Reactions were carried out at 37°C with 2 nM hLEG. Substrate concentrations ranged from 100 to 0.787 μM for Z‐AAN‐AMC and from 75 to 0.28 μM for Z‐VAN‐AMC.
Reactions were initiated by addition of the enzyme, and fluorescence was monitored in a microplate reader (CLARIOstar Plus with Voyager v2405 software, BMG Labtech) at 380 nm excitation and 460 nm emission. All measurements were performed in triplicate (n = 3).
Data analysis was performed in GraphPad Prism (v9.3.1; GraphPad Software, La Jolla, CA) using the built‐in Michaelis–Menten model for Z‐AAN‐AMC and the substrate inhibition model for Z‐VAN‐AMC. Data points corresponding to 23.73 μM Z‐VAN‐AMC were excluded from analysis, as a linear fit of the initial slope was not possible. Standard errors of the curve fits are reported for all fitted parameters.

The test system of assay [2] is AtLEGβ. Conditions: ref Dall et al., [2020]; cited from earlier work. The text has this:
To probe non‐prime side specificity, we constructed a second peptide library using the format XXXN‐CL, fixing P1' as cysteine and P2' as leucine, based on the highest‐scoring sequences from the prime‐side screen. […] Thr and Val were especially well tolerated, a trend that persisted when P2 was fixed as Ala and P3/P4 were varied (Figure S7b). These predictions were validated experimentally by comparing AtLEGβ affinity for Z‐AAN‐AMC versus Z‐VAN‐AMC fluor ...

Setting [3] is: pH 5.5, 37°C, n = 3, ± standard error of fit (Figure 9).

The Km is the substrate concentration at which the rate is half of its maximum. With “benzyloxycarbonyl‐Ala‐Ala‐Asn‐7‐amino‐4‐methylcoumarin [Z‐AAN‐AMC]”, the Km in assay [1] (n = 3, ± standard error of fit) is 55 µM; in assay [1] (n = 3, ± standard error of fit, listed as Z-AAN-AMC) it was 55.5 ± 2.4 µM; in assay [2], 337 ± 3 µM. The Vmax in assay [1] (pH 5.5, 37°C, n = 3) turned out to be 400 RFU/s; in assay [1] (setting [3]), 399.6 ± 8.6 RFU/sec.

Regarding `Cc1cc(=O)oc2cc(NC(=O)[C@H](CC(N)=O)NC(=O)[C@H](C)NC(=O)[C@@H](NC(=O)OCc3ccccc3)C(C)C)ccc12` [Z‐VAN‐AMC, benzyloxycarbonyl‐Val‐Ala‐Asn‐7‐amino‐4‐methylcoumarin] (Cbz-Val-Ala-Asn-{AMC}), the Michaelis constant (Km) is approximately 20 µM in assay [1] (n = 3, ± standard error of fit); 19.6 ± 5.32 µM in assay [1] (n = 3, ± standard error of fit, listed as Z-VAN-AMC); 57 ± 3 µM in assay [2]. In assay [1] (pH 5.5, 37°C), the “Vmax ratio Z-VAN-AMC vs Z-AAN-AMC” value is ~ 20 fold. Moreover, the Vmax in assay [1] (pH 5.5, 37°C, n = 3) is reported as 7800 RFU/s; in assay [1] (setting [3]), 7776 ± 1591 RFU/sec. In assay [1] (pH 5.5, 37°C, substrate inhibition model, n = 3, ± standard error of fit), this molecule returned a Ki of 16.2 ± 4.5 µM.
